From patent US5217952A, “Peptides WS-9326a and WS-9326b, derivatives thereof and uses thereof” (Fujisawa Pharmaceutical Co., Ltd., priority 1988, dated 1993)
Values belong to the molecule of their own block, whether it stands above or below them. Numbered stars: 1 amine (or outer) side, 2 acyl side, 3 side chain; on linkers, the order of the positions; unused ones are H or OH. Bridge positions count the residues as written; N and C are the ends. Square brackets hold non-standard residues; d marks the D form. Peptide text beside a SMILES is read from it. * marks the point of attachment. Cinnamoyl(2-(1Z-pentenyl)) = CCC/C=C\c1ccccc1/C=C/C(=O)*; X1 = CN(/C(=C/c1ccc(O)cc1)C(=O)[*:2])[*:1]; NMeY = CN[C@@H](Cc1ccc(O)cc1)C(=O)O; aThr = C[C@H](O)[C@H](N)C(=O)O; X2 = CCCCCc1ccccc1CCC(=O)*

Legend:
[1] = test system: contractile responses of guinea pig trachea induced by substance P (SP); assay: Contractile response of guinea pig trachea induced by substance P; conditions: for IC50: read-out: IC50 (M), SP 10^-8 M induced contraction
Experimental: (§3) Tracheal spiral strips were prepared from adult, male, albino Hartley strain guinea pigs (600 g) according to standard technique and placed in jacketed 30 ml glass tissue bath. […] Tracheal strips (2 mm width and 50 mm length) were suspended under a resting tension of 500 mg in 30 ml organ baths containing warm (37° C.) oxygenated (95% O2 : 5% CO2) Tyrode solution of following composition: NaCl 137 mM (8 g/liter), KCl 2.7 mM (0.2 g/liter), CaCl2 ·2H2 O 1.8 mM (0.264 g/liter), MgCl2 ·6H2 O 1.02mM (0.208 g/liter), NaHCO3 11.9 mM (1 g/liter), NaH2 PO4 ·2H2 O 0.42 mM (0.066 g/liter) and glucose 5.5 mM (1 g/liter).

[2] = test system: neurokinin A induced bronchoconstriction; assay: Neurokinin A induced bronchoconstriction, drug iv; assay type: in vivo, guinea-pigs; conditions: 10 mg/kg, n:5
Experimental: (§1) Male Hartley strain guinea-pigs weighing 300-500 g were immobilized with sodium pentobarbital (10 mg/animal administered intraperitoneally). The jugular vein was cannulated for administration of neurokinin A (or capsaicin) and drug. A catheter was also intubated into trachea for artifical ventilation. The animal was respirated by means of a miniature respiration pump (HARVARD B-34, 5 ml/stroke, 60 strokes/minute). Resistance to lung inflation was measured by a modification of Konzett-Rossler overflow technique.
(§2) Agonist was administered iv and the antagonist drug (prepared in 0.1% methyl cellulose-saline) was administered iv as shown below. [drawing 7]

[3] = test system: neurokinin A induced bronchoconstriction; assay: Neurokinin A induced bronchoconstriction, intratrachea administration; assay type: in vivo, guinea-pigs; conditions: for Inhibition (%) of neurokinin A response / ED50 mg/kg, inhibition of neurokinin A response: NKA 1 n mol/kg iv; for Effect of intratrachea administration on neurokinin A induced bronchoconstriction (in words): dissolved in DMSO; for Effect of intratrachea administration on neurokinin A induced bronchoconstriction (in words) / ED50 mg/kg, inhibition of neurokinin A response: intratrachea
Experimental: as §1
The method was almost same as mentioned above.

[4] = test system: acetic acid induced writhing; assay: Analgesic action, acetic acid induced writhing; assay type: in vivo; conditions: male ddY mice; intraperitoneally 15 minutes before acetic acid
Experimental: Ten male ddY strain mice were used par group. To estimate the frequency of writhing syndrome, the animals were observed from 3 to 13 minutes after an intraperitoneal injection of 0.2 ml/10 g of 0.6% acetic acid. […] The frequency of writhing syndrome in the treated animals was compared with that in the non-treated control animals.

[5] = Solubility (physical and chemical properties); assay type: physicochemical
[6] = test system: capsaicin induced bronchoconstriction; assay: Capsaicin induced bronchoconstriction, drug iv; assay type: in vivo, guinea-pigs; conditions: 10 mg/kg, n:4
Experimental: as §1, §2

[7] = test system: contractile responses of guinea pig trachea induced by neurokinin A (NKA); assay: Contractile response of guinea pig trachea induced by neurokinin A
Experimental: as §3

[8] = Acute toxicity, single intraperitoneal injection; conditions: mouse, in vivo, ip, ddY mice, male
Experimental: Acute toxicity of WS-9326A was determined in ddY mice (5 weeks old, male) by a single intraperitoneal injection of graded dose of test compound into 5 mice.

[9] = target: T1, specific [^3 H] substance P binding to guinea pig lung membranes (Cavia porcellus, UniProt P30547); assay: ^3H-Substance P binding to guinea pig lung membranes (radioligand binding assay); conditions: 3H-Substance P 1 nM, 4° C., 30 minutes, read-out: IC50 (M) lung, displacement of specific [3H] substance P binding
T1 construct: The trachea and lungs were removed, and stored at -80° C. until use; from tissue; host or cells: guinea pig trachea and lung crude membrane fraction
T1 sequence (P30547 whole entry): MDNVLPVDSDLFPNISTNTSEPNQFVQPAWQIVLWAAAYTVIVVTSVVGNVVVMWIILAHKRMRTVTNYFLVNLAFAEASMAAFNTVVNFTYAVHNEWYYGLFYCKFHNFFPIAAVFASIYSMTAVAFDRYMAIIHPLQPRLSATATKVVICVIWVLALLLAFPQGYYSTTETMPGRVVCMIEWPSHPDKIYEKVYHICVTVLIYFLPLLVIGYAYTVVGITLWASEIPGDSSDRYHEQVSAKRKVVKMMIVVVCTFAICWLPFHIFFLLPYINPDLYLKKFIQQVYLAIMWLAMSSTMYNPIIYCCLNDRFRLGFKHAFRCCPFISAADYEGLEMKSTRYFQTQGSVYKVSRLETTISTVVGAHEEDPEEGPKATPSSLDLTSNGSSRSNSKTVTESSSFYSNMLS
Experimental: Male albino Hartley strain guinea pigs (600 g) were sacrificed by decapitation. The trachea and lungs were removed, and stored at -80° C. until use. […] The tissue was homogenized with a Ultra-Disperser (YAMATO, MODEL LK-21) at a setting of maximum range for 10-s at 10-s intervals with cooling between homogenizations (total homogenization's time: 60 seconds). The homogenate was centrifuged (900×g for 10 min.) to remove tissue supernatant centrifuged at 14000×g for 20 min. to yield pellets which were referred to as crude membrane fractions. The pellets were resuspended in Medium I, homogenized with a teflon homogenizer and centrifuged at 14000×g for 20 min. The pellets were stored at -20° C.
^3 H-Substance P (1 nM, New England Nuclear) was incubated with 50 μl of the membrane preparation in medium I at 4° C. for 30 minutes in a final volume of 250 μl. At the end of the incubation period, its contents were quickly filtered over a whatmann GF/B glass fibre filter (pretreated with 0.1% polyethyleneimine for 3 hours prior to use) using cell harvester (BRANDEL M-24S). The filters were then washed ten times with a total of 3 ml of the washing buffer (50 mM Tris-HCl pH 7.5) at 0° C. The radioactivity was counted in 3 ml of Aquazol-2 in Packard sintillation counter (PACKARD TRI-CARB 4530).

[10] = intratrachea 0.03 mg/kg in DMSO, 20 minutes
[11] = intratrachea 0.03 mg/kg in DMSO, 35 minutes
[12] = intratrachea 0.03 mg/kg in DMSO, 50 minutes
[13] = intratrachea 0.03 mg/kg in DMSO, 65 minutes
[14] = intratrachea 0.3 mg/kg in DMSO, 20 minutes
[15] = intratrachea 0.3 mg/kg in DMSO, 35 minutes
[16] = intratrachea 0.3 mg/kg in DMSO, 50 minutes
[17] = intratrachea 0.3 mg/kg in DMSO, 65 minutes

SMILES: CCCCCc1ccccc1CCC(=O)N[C@@H]1C(=O)N(C)/C(=C/c2ccc(O)cc2)C(=O)N[C@@H](CC(C)C)C(=O)N[C@H](Cc2ccccc2)C(=O)N[C@@H]([C@H](C)O)C(=O)N[C@@H](CC(N)=O)C(=O)N[C@@H](CO)C(=O)O[C@@H]1C [Tetrahydro-WS-9326A, tetrahydro-WS-9326A] (X2-T[X1]L[dF][aThr]NS; ester 1-C; N-terminus assumed)
IC50 [1]: 3.1e-06 M
Inhibition (%) of neurokinin A (1 n mol/kg, iv) response ([2]; 2 minutes): 41.0 ± 5.6%
Inhibition (%) of neurokinin A (1 n mol/kg, iv) response ([2]; 17 minutes): 100.0 ± 0.0%
Inhibition (%) of neurokinin A (1 n mol/kg, iv) response ([2]; 32 minutes): 99.2 ± 0.8%
Inhibition (%) of neurokinin A (1 n mol/kg, iv) response ([2]; 47 minutes): 98.4 ± 1.6%
Inhibition (%) of neurokinin A (1 n mol/kg, iv) response ([2]; 62 minutes): 100.0 ± 0.0%
Inhibition (%) of neurokinin A response ([3]; intratrachea 0.003 mg/kg in DMSO, 20 minutes): 5.4%
Inhibition (%) of neurokinin A response ([3]; intratrachea 0.003 mg/kg in DMSO, 35 minutes): 23.5%
Inhibition (%) of neurokinin A response ([3]; intratrachea 0.003 mg/kg in DMSO, 50 minutes): 17.2%
Inhibition (%) of neurokinin A response ([3]; intratrachea 0.003 mg/kg in DMSO, 65 minutes): 12.6%
Inhibition (%) of neurokinin A response [3, 10]: 50.0%
Inhibition (%) of neurokinin A response [3, 11]: 50.9%
Inhibition (%) of neurokinin A response [3, 12]: 51.4%
Inhibition (%) of neurokinin A response [3, 13]: 43.0%
Inhibition (%) of neurokinin A response [3, 14]: 77.7%
Inhibition (%) of neurokinin A response [3, 15]: 75.7%
Inhibition (%) of neurokinin A response [3, 16]: 74.6%
Inhibition (%) of neurokinin A response [3, 17]: 71.1%
Effect of intratrachea administration on neurokinin A induced bronchoconstriction (in words) [3]: highly potent
ED50, acetic acid induced writhing [4]: 5.5 mg/kg

SMILES: CCC/C=C\c1ccccc1/C=C/C(=O)N[C@@H]1C(=O)N(C)/C(=C/c2ccc(O)cc2)C(=O)N[C@@H](CC(C)C)C(=O)N[C@H](Cc2ccccc2)C(=O)N[C@@H]([C@H](C)O)C(=O)N[C@@H](CC(N)=O)C(=O)N[C@@H](CO)C(=O)O[C@@H]1C [WS-9326A] ({Cinnamoyl(2-(1Z-pentenyl))}-T[X1]L[dF][aThr]NS; ester 1-C; N-terminus assumed)
Solubility ([5]; acetone): Sparingly Soluble
Solubility ([5]; chloroform): Insoluble
Solubility ([5]; ethanol): Soluble
Solubility ([5]; ethyl acetate): Sparingly Soluble
Solubility ([5]; methanol): Soluble
Solubility ([5]; water): Insoluble
Inhibition (%) of capsaicin (10 n mol/kg, iv) response ([6]; 2 minutes): 16.6 ± 5.1%
Inhibition (%) of capsaicin (10 n mol/kg, iv) response ([6]; 17 minutes): 40.6 ± 12.2%
Inhibition (%) of capsaicin (10 n mol/kg, iv) response ([6]; 32 minutes): 51.2 ± 10.4%
Inhibition (%) of capsaicin (10 n mol/kg, iv) response ([6]; 47 minutes): 37.2 ± 19.7%
Inhibition (%) of capsaicin (10 n mol/kg, iv) response ([6]; 62 minutes): 47.1 ± 16.7%
Inhibition % SP 10^-8 M ([1]; 3 μg/ml): -10%
Inhibition % SP 10^-8 M ([1]; 10 μg/ml): 50%
Inhibition % SP 10^-8 M ([1]; 30 μg/ml): 63%
IC50 [1]: 9.7e-06 M
Inhibition (%) of neurokinin A (1 n mol/kg, iv) response ([2]; 2 minutes): -16.5 ± 5.6%
Inhibition (%) of neurokinin A (1 n mol/kg, iv) response ([2]; 17 minutes): 30.2 ± 12.9%
Inhibition (%) of neurokinin A (1 n mol/kg, iv) response ([2]; 32 minutes): 45.8 ± 13.8%
Inhibition (%) of neurokinin A (1 n mol/kg, iv) response ([2]; 47 minutes): 55.4 ± 8.1%
Inhibition (%) of neurokinin A (1 n mol/kg, iv) response ([2]; 62 minutes): 49.9 ± 13.4%
Inhibition % NKA 10^-9 M ([7]; 3 μg/ml): 44%
Inhibition % NKA 10^-9 M ([7]; 10 μg/ml): 79%
Inhibition % NKA 10^-9 M ([7]; 30 μg/ml): 100%
IC50 ([7]; read-out: IC50 (M), NKA 10^-9 M induced contraction): 3.5e-06 M
Inhibition (%) of neurokinin A response [3, 10]: 32.3%
Inhibition (%) of neurokinin A response [3, 11]: 28.4%
Inhibition (%) of neurokinin A response [3, 12]: 35.6%
Inhibition (%) of neurokinin A response [3, 13]: 35.5%
Inhibition (%) of neurokinin A response [3, 14]: 50.6%
Inhibition (%) of neurokinin A response [3, 15]: 42.4%
Inhibition (%) of neurokinin A response [3, 16]: 44.9%
Inhibition (%) of neurokinin A response [3, 17]: 42.0%
Inhibition (%) of neurokinin A response ([3]; intratrachea 3 mg/kg in DMSO, 20 minutes): 73.4%
Inhibition (%) of neurokinin A response ([3]; intratrachea 3 mg/kg in DMSO, 35 minutes): 79.4%
Inhibition (%) of neurokinin A response ([3]; intratrachea 3 mg/kg in DMSO, 50 minutes): 81.7%
Inhibition (%) of neurokinin A response ([3]; intratrachea 3 mg/kg in DMSO, 65 minutes): 77.7%
Effect of intratrachea administration on neurokinin A induced bronchoconstriction (in words) [3]: highly potent
ED50 mg/kg, inhibition of neurokinin A response ([3]; 20 minutes): 0.23 mg/kg
ED50 mg/kg, inhibition of neurokinin A response ([3]; 35 minutes): 0.29 mg/kg
ED50 mg/kg, inhibition of neurokinin A response ([3]; 50 minutes): 0.19 mg/kg
ED50 mg/kg, inhibition of neurokinin A response ([3]; 65 minutes): 0.24 mg/kg
LD50 [8]: 250 to 500 mg/kg

Solubility ([5]; acetone): Insoluble
Solubility ([5]; chloroform): Insoluble
Solubility ([5]; ethanol): Sparingly Soluble
Solubility ([5]; ethyl acetate): Insoluble
Solubility ([5]; methanol): Soluble
Solubility ([5]; water): Insoluble
IC50 [9]: 8.8e-05 M
SMILES: CCC/C=C\c1ccccc1/C=C/C(=O)N[C@@H]1C(=O)N(C)[C@@H](Cc2ccc(O)cc2)C(=O)N[C@@H](CC(C)C)C(=O)N[C@H](Cc2ccccc2)C(=O)N[C@@H]([C@H](C)O)C(=O)N[C@@H](CC(N)=O)C(=O)N[C@@H](CO)C(=O)O[C@@H]1C [WS-9326B] ({Cinnamoyl(2-(1Z-pentenyl))}-T[NMeY]L[dF][aThr]NS; ester 1-C)
